Source: publication PMC8126888 (RSC Medicinal Chemistry, 2020)
Read-outs that look alike come from different tables or passages of the source.

Assays:
in vitro [1] = details: Swiss, mouse
in vitro [2] = details: human, microsomes, pH 7.4, HLM CLint, human liver microsomes
[3] = system: primary peritoneal mouse macrophages (PMM); details: PMM IC50 / L. infantum IC50
in vitro [4] = details: human
in vitro [5] = details: mouse, microsomes, pH 7.4, MLM CLint, mouse liver microsomes
[6] = system: Leishmania infantum MHOM/MA(BE)/67/ITMAP263 intracellular amastigotes; assay: microbe, parasite or virus in culture; details: Macrophage, in Mus musculus
physchem = details: HPLC, Ascentis Express RP Amide column, pH 7.4, eLogD
[7] = system: Trypanosoma cruzi, Tulahuen CL2, beta-galactosidase strain; assay: microbe, parasite or virus in culture; details: MRC5, read-out: T. cruzi Tulahuen C4 (LacZ) IC50
[8] = read-out: L. Inf. pIC50, from L. infantum intracellular amastigote IC50 (converted)
[9] = read-out: L. infantum MHOM/MA(BE)/67/ITMAP263 intracellular amastigotes IC50

CC(=O)Nc1ccc(S(=O)(=O)N(CCN(C)C)Cc2ccccc2)cc1 [DNDI0003366091]
IC50 (in vitro [1]): > 64 µM
microsomal CLint at 0.5 μM (in vitro [2]): 95 µL/min/mg
SI (vs PMM) [3]: 1
CC50 at 3 days (in vitro [4]): > 64 µM
microsomal CLint at 0.5 μM (in vitro [5]): 42 µL/min/mg
IC50 [6, 8]: > 64 µM
IC50 [6, 9]: > 64 µM
chromatographic logD (physchem): 3
IC50 [7]: > 64 µM

COc1ccc(OC)c(S(=O)(=O)N(Cc2ccc(F)cc2)Cc2ccc(F)cc2)c1 [DNDI0003366069]
IC50 (in vitro [1]): > 64 µM
SI (vs PMM) [3]: 119
CC50 at 3 days (in vitro [4]): > 64 µM
IC50 [6, 8]: 0.537 µM
IC50 [6, 9]: 0.54 µM
IC50 [7]: 6.35 µM

CCN(Cc1ccccc1)S(=O)(=O)c1cc(F)ccc1F [DNDI0003364474]
IC50 (in vitro [1]): > 64 µM
microsomal CLint at 0.5 μM (in vitro [2]): 205 µL/min/mg
SI (vs PMM) [3]: 2
CC50 at 3 days (in vitro [4]): 45.2 µM
microsomal CLint at 0.5 μM (in vitro [5]): 705 µL/min/mg
IC50 [6, 8]: 33.9 µM
IC50 [6, 9]: 33.9 µM
chromatographic logD (physchem): 4.2
IC50 [7]: 30.1 µM

COc1ccc(OC)c(S(=O)(=O)N(C)Cc2ccc(F)cc2)c1 [DNDI0003366066]
IC50 (in vitro [1]): > 64 µM
microsomal CLint at 0.5 μM (in vitro [2]): 414 µL/min/mg
SI (vs PMM) [3]: 5
CC50 at 3 days (in vitro [4]): > 64 µM
IC50 [6, 8]: 11.7 µM
IC50 [6, 9]: 11.7 µM
IC50 [7]: 26.7 µM

CCN(Cc1ccccn1)S(=O)(=O)c1cc(OC)ccc1OC [DNDI0003366095]
IC50 (in vitro [1]): > 64 µM
microsomal CLint at 0.5 μM (in vitro [2]): 118 µL/min/mg
SI (vs PMM) [3]: 1
CC50 at 3 days (in vitro [4]): > 64 µM
microsomal CLint at 0.5 μM (in vitro [5]): 2190 µL/min/mg
IC50 [6, 8]: 43.7 µM
IC50 [6, 9]: 44.1 µM
chromatographic logD (physchem): 2.7
IC50 [7]: > 64 µM

O=S(=O)(c1ccccc1OC(F)(F)F)N(Cc1ccccc1)Cc1ccccc1 [DNDI0003366074]
IC50 (in vitro [1]): 32 µM
microsomal CLint at 0.5 μM (in vitro [2]): 93 µL/min/mg
SI (vs PMM) [3]: 30
CC50 at 3 days (in vitro [4]): > 64 µM
microsomal CLint at 0.5 μM (in vitro [5]): 689 µL/min/mg
IC50 [6, 8]: 1.07 µM
IC50 [6, 9]: 1.08 µM
IC50 [7]: 6.3 µM

CC(=O)Nc1ccc(S(=O)(=O)NCc2ccccc2)cc1 [DNDI0003366092]
IC50 (in vitro [1]): > 64 µM
SI (vs PMM) [3]: 1
CC50 at 3 days (in vitro [4]): > 64 µM
IC50 [6, 8]: > 64 µM
IC50 [6, 9]: > 64 µM
IC50 [7]: > 64 µM

COCCN(C(C)=O)c1ccc(S(=O)(=O)N(CCOC)Cc2ccccc2)cc1 [DNDI0003366101]
IC50 (in vitro [1]): > 64 µM
microsomal CLint at 0.5 μM (in vitro [2]): 73 µL/min/mg
SI (vs PMM) [3]: 1
CC50 at 3 days (in vitro [4]): > 64 µM
microsomal CLint at 0.5 μM (in vitro [5]): 227 µL/min/mg
IC50 [6, 8]: > 64 µM
IC50 [6, 9]: > 64 µM
chromatographic logD (physchem): 3.1
IC50 [7]: > 64 µM

COc1ccc(OC)c(S(=O)(=O)N(Cc2ccccc2)C2CCNCC2)c1 [DNDI0003366094]
IC50 (in vitro [1]): 45.2 µM
microsomal CLint at 0.5 μM (in vitro [2]): 100 µL/min/mg
SI (vs PMM) [3]: 2
CC50 at 3 days (in vitro [4]): 42.2 µM
microsomal CLint at 0.5 μM (in vitro [5]): 23 µL/min/mg
IC50 [6, 8]: 27.5 µM
IC50 [6, 9]: 27.8 µM
chromatographic logD (physchem): 3.1
IC50 [7]: 28.9 µM

COc1ccc(Cl)cc1S(=O)(=O)N(Cc1ccccc1)Cc1ccccc1 [DNDI0003366072]
IC50 (in vitro [1]): > 64 µM
microsomal CLint at 0.5 μM (in vitro [2]): 407 µL/min/mg
CC50 at 3 days (in vitro [4]): > 64 µM
microsomal CLint at 0.5 μM (in vitro [5]): 1350 µL/min/mg
IC50 [6, 8]: 1.38 µM
IC50 [6, 9]: 1.37 µM
IC50 [7]: 8.16 µM

COc1ccc(OC)c(S(=O)(=O)N(CCO)Cc2ccccc2)c1 [DNDI0003366067]
IC50 (in vitro [1]): > 64 µM
microsomal CLint at 0.5 μM (in vitro [2]): 161 µL/min/mg
SI (vs PMM) [3]: 1
CC50 at 3 days (in vitro [4]): > 64 µM
IC50 [6, 8]: 52.5 µM
IC50 [6, 9]: 52.5 µM
chromatographic logD (physchem): 2.9
IC50 [7]: 51.2 µM

CONS(=O)(=O)c1cc(Cl)ccc1OC [DNDI0003364475]
IC50 (in vitro [1]): > 64 µM
SI (vs PMM) [3]: 1
CC50 at 3 days (in vitro [4]): > 64 µM
IC50 [6, 8]: > 64 µM
IC50 [6, 9]: > 64 µM
IC50 [7]: > 64 µM

CCN(Cc1ccccc1)S(=O)(=O)c1cc(F)ccc1OC [DNDI0003366070]
IC50 (in vitro [1]): > 64 µM
microsomal CLint at 0.5 μM (in vitro [2]): 383 µL/min/mg
SI (vs PMM) [3]: 6
CC50 at 3 days (in vitro [4]): 49.6 µM
IC50 [6, 8]: 11 µM
IC50 [6, 9]: 11 µM
chromatographic logD (physchem): 3.9
IC50 [7]: 28.4 µM

COc1ccc(Cl)cc1S(=O)(=O)NCCN(C)C [DNDI0003366089]
IC50 (in vitro [1]): > 64 µM
microsomal CLint at 0.5 μM (in vitro [2]): 33 µL/min/mg
SI (vs PMM) [3]: 1
CC50 at 3 days (in vitro [4]): > 64 µM
IC50 [6, 8]: > 64 µM
IC50 [6, 9]: > 64 µM
chromatographic logD (physchem): 2.1
IC50 [7]: > 64 µM

COCCN(Cc1ccccc1)S(=O)(=O)c1ccc(NC(C)=O)cc1 [DNDI0003366100]
IC50 (in vitro [1]): > 64 µM
microsomal CLint at 0.5 μM (in vitro [2]): 424 µL/min/mg
SI (vs PMM) [3]: 1
CC50 at 3 days (in vitro [4]): > 64 µM
microsomal CLint at 0.5 μM (in vitro [5]): 29 µL/min/mg
IC50 [6, 8]: > 64 µM
IC50 [6, 9]: > 64 µM
chromatographic logD (physchem): 3.2
IC50 [7]: > 64 µM

CCCCC(=O)Nc1cccnc1S(=O)(=O)CCOc1ccccc1 [DNDI0003363560]
IC50 (in vitro [1]): 32 µM
SI (vs PMM) [3]: 1
CC50 at 3 days (in vitro [4]): 29.7 µM
IC50 [6, 8]: 32.4 µM
IC50 [6, 9]: 32.5 µM
IC50 [7]: 14.7 µM

COc1ccc(Cl)cc1S(=O)(=O)N(CCN(C)C)Cc1ccccc1 [DNDI0003366090]
IC50 (in vitro [1]): 45.2 µM
microsomal CLint at 0.5 μM (in vitro [2]): 1190 µL/min/mg
SI (vs PMM) [3]: 7
CC50 at 3 days (in vitro [4]): 26.7 µM
microsomal CLint at 0.5 μM (in vitro [5]): 120 µL/min/mg
IC50 [6, 8]: 6.17 µM
IC50 [6, 9]: 6.14 µM
chromatographic logD (physchem): 4
IC50 [7]: 32.7 µM

COc1ccc(F)cc1S(=O)(=O)N(Cc1ccccc1)Cc1ccccc1 [DNDI0003366071]
IC50 (in vitro [1]): > 64 µM
microsomal CLint at 0.5 μM (in vitro [2]): 955 µL/min/mg
SI (vs PMM) [3]: 47
CC50 at 3 days (in vitro [4]): > 64 µM
IC50 [6, 8]: 1.38 µM
IC50 [6, 9]: 1.37 µM
IC50 [7]: 6.82 µM

CCN(Cc1ccc(F)cc1)S(=O)(=O)c1cc(Cl)ccc1OC [DNDI0003366065]
IC50 (in vitro [1]): > 64 µM
microsomal CLint at 0.5 μM (in vitro [2]): 352 µL/min/mg
SI (vs PMM) [3]: 3
CC50 at 3 days (in vitro [4]): 59.5 µM
IC50 [6, 8]: 21.9 µM
IC50 [6, 9]: 22 µM
chromatographic logD (physchem): 4.4
IC50 [7]: 6.88 µM

CCN(Cc1ccccc1)S(=O)(=O)c1ccccc1Br [DNDI0003365405]
IC50 (in vitro [1]): > 64 µM
microsomal CLint at 0.5 μM (in vitro [2]): 88 µL/min/mg
SI (vs PMM) [3]: 2
CC50 at 3 days (in vitro [4]): > 64 µM
microsomal CLint at 0.5 μM (in vitro [5]): 235 µL/min/mg
IC50 [6, 8]: 33.9 µM
IC50 [6, 9]: 33.9 µM
chromatographic logD (physchem): 4.2
IC50 [7]: 13.8 µM

CCC(Cc1ccccc1)S(=O)(=O)c1nc(C)cc(C)c1C#N (centres unmarked) [DNDI0003297459]
IC50 (in vitro [1]): > 64 µM
SI (vs PMM) [3]: 3
CC50 at 3 days (in vitro [4]): > 64 µM
IC50 [6, 8]: 20.4 µM
IC50 [6, 9]: 20.2 µM
IC50 [7]: 45.2 µM

COCCN(Cc1ccccc1)S(=O)(=O)c1cc(OC)ccc1OC [DNDI0003365566]
IC50 (in vitro [1]): > 64 µM
microsomal CLint at 0.5 μM (in vitro [2]): 253 µL/min/mg
SI (vs PMM) [3]: 31
CC50 at 3 days (in vitro [4]): 39.4 µM
IC50 [6, 8]: 2.09 µM
IC50 [6, 9]: 2.07 µM
IC50 [7]: 32.8 µM

Cc1cc(C)c(C#N)c(SCSc2nc(C)cc(C)c2C#N)n1 [DNDI0003297456]
IC50 (in vitro [1]): > 64 µM
SI (vs PMM) [3]: 1
CC50 at 3 days (in vitro [4]): > 64 µM
IC50 [6, 8]: > 64 µM
IC50 [6, 9]: > 64 µM
IC50 [7]: > 64 µM
